# Experimental data taken from patent US9278953B2, “Antagonists of prostaglandin EP3 receptor” (Pfizer Inc., priority 2013, dated 2016).
# Target: human EP3 receptor (Homo sapiens (Human), UniProt P43115)
# Test: EP3 Radioligand SPA Binding Assay
# Conditions: [3H]-PGE2 displacement, Millipore EP3 Chem1 membranes; geometric mean Ki, calculated from IC50 by Cheng-Prusoff
# Protocol: EP3 Radioligand SPA Binding Assay
# Compound affinity was expressed as a […], defined as the concentration of compound required to decrease [^3H] PGE2 binding by 50% for a specific membrane batch at a given concentration of radioligand.
# Test compounds were half log serially diluted in 100% DMSO (J. T. Baker #922401). 1 μL of each compound was added to appropriate wells of a 384-well plate (Matrix Cat #4322). Unlabeled PGE2 (Tocris Cat #2296) at a final concentration of 1 μM was used to determine non-specific binding. 1 μL of 100% DMSO (J. T. Baker #922401) was used to determine total binding. Millipore EP3 Chem1 membranes (prepared in-house from cell paste derived from the Millipore ChemiSCREEN™ Human Recombinant EP3 Prostanoid Receptor Calcium-Optimized Stable Cell Line (Millipore Cat #HTS092C. http://www.millipore.com/catalogue/item/hts092c)) were thawed and diluted in binding buffer (50 mM Hepes pH 7.4 (Lonza Cat #17-737), 5 mM MgCl2 (Sigma-M1028), and 0.1% BSA (Sigma A-7409)) to a final concentration of 1 μg/25 μL. 25 μL of diluted membranes were added to prepared compound plates. WGA coated PVT SPA Beads (Perkin Elmer Cat #RPNQ0060) were diluted in binding buffer to a concentration of 4 μg/ul, and 25 μL of the SPA bead mixture was then added to each well for a final assay concentration of 100 μg/well. [^3H]-PGE2 (Perkin Elmer Cat #NET428) was diluted in binding buffer to a concentration of […], and 25 μL was added to all wells for a final assay concentration of 1.125 nM. Plates were incubated for 30 minutes at r.t. (approximately 25° C.) with shaking. Radioactivity associated with each well was measured after a 10 hour incubation using a Wallac Trilux MicroBeta plate-based scintillation counter and a normalized protocol at 1 minute read/well. The Kd for [^3H]-PGE2 was determined by carrying out saturation binding, with data analysis by non-linear regression, fit to a one-site hyperbola (Graph Pad Prism). IC50 determinations were made from competition curves, analyzed with a proprietary curve fitting program (SIGHTS) and a 4-parameter logistic dose response equation. Ki values were calculated from IC50 values, using the Cheng-Prusoff equation.
# Results are reported as geometric mean Ki values.
# Chain of human EP3 receptor (P43115 whole entry): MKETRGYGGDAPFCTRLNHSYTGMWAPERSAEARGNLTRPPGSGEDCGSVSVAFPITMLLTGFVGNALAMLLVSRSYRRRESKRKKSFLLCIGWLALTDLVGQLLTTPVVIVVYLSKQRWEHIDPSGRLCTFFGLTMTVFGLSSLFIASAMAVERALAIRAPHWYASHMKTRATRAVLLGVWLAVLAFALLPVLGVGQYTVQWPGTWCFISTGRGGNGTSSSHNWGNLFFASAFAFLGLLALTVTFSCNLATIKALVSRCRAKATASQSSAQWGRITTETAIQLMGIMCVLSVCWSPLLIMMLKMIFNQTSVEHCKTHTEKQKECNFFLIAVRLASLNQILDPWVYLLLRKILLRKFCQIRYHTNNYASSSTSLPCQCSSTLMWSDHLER
row,Ki [nM],Compound
1,2,"CCn1ncc2c(F)cc(-c3ccc([C@@]4(C)CCCNC4=O)c(=O)[nH]3)cc21 [Example 1, (R)-6-(1-ethyl-4-fluoro-1H-indazol-6-yl)-3-(3-methyl-2-oxopiperidin-3-yl)pyridin-2(1H)-one]"
2,3.6,"Cn1ncc2c(Cl)cc(-c3ccc([C@@]4(C)CCCNC4=O)c(=O)[nH]3)cc21 [Example 2, (R)-6-(4-chloro-1-methyl-1H-indazol-6-yl)-3-(3-methyl-2-oxopiperidin-3-yl)pyridin-2(1H)-one]"
3,9.5,"CCn1ncc2c(C)cc(-c3ccc([C@@]4(C)CCCNC4=O)c(=O)[nH]3)cc21 [Example 3, (R)-6-(1-ethyl-4-methyl-1H-indazol-6-yl)-3-(3-methyl-2-oxopiperidin-3-yl)pyridin-2(1H)-one]"
4,11.2,"Cn1ccc2ccc(-c3ccc([C@@]4(C)CCCNC4=O)c(=O)[nH]3)cc21 [Example 4, (R)-6-(1-methyl-1H-indol-6-yl)-3-(3-methyl-2-oxopiperidin-3-yl)pyridin-2(1H)-one]"
5,12.2,"Cn1ccc2cc(-c3ccc([C@@]4(C)CCCNC4=O)c(=O)[nH]3)ccc21 [Example 5, (R)-6-(1-methyl-1H-indol-5-yl)-3-(3-methyl-2-oxopiperidin-3-yl)pyridin-2(1H)-one]"
6,46,"Cn1ccc2cc(-c3ccc([C@@]4(C)CCNC4=O)c(=O)[nH]3)ccc21 [Example 6, (R)-6-(1-methyl-1H-indol-5-yl)-3-(3-methyl-2-oxopyrrolidin-3-yl)pyridin-2(1H)-one]"
7,7.8,"Cn1cnc2cc(-c3ccc([C@@]4(C)CCCNC4=O)c(=O)[nH]3)cc(Cl)c21 [Example 7, (R)-6-(7-chloro-1-methyl-1H-benzo[d]imidazol-5-yl)-3-(3-methyl-2-oxopiperidin-3-yl)pyridin-2(1H)-one]"
8,14.2,"Cn1ncc2c(Cl)cc(-c3ccc([C@@]4(C)CCNC4=O)c(=O)[nH]3)cc21 [Example 8, (R)-6-(4-chloro-1-methyl-1H-indazol-6-yl)-3-(3-methyl-2-oxopyrrolidin-3-yl)pyridin-2(1H)-one]"
9,11.9,"Cn1ccc2cc(-c3ccc([C@@]4(C)CCNC4=O)c(=O)[nH]3)cc(F)c21 [Example 9, (R)-6-(7-fluoro-1-methyl-1H-indol-5-yl)-3-(3-methyl-2-oxopyrrolidin-3-yl)pyridin-2(1H)-one]"
10,19.9,"CCn1ccc2ccc(-c3ccc([C@@]4(C)CCNC4=O)c(=O)[nH]3)cc21 [Example 10, (R)-6-(1-ethyl-1H-indol-6-yl)-3-(3-methyl-2-oxopyrrolidin-3-yl)pyridin-2(1H)-one]"
11,25,"Cc1cc(-c2ccc([C@@]3(C)CCCNC3=O)c(=O)[nH]2)cc2c1cnn2C [Example 12, (R)-6-(1,4-dimethyl-1H-indazol-6-yl)-3-(3-methyl-2-oxopiperidin-3-yl)pyridin-2(1H)-one]"
12,29.2,"C[C@]1(c2ccc(-c3cc(F)c4[nH]nc(C5CC5)c4c3)[nH]c2=O)CCCNC1=O [Example 14, (R)-6-(3-cyclopropyl-7-fluoro-1H-indazol-5-yl)-3-(3-methyl-2-oxopiperidin-3-yl)pyridin-2(1H)-one]"
